Experimental data published in PubChem BioAssay (NCI).
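Step 1: Grow cells in 96-well plates. Step 2: Expose to compound for 48 hours at 5 concentrations. Step 3: Interpolate endpoints linearly; if unreached, use highest concentration. TGI marks complete inhibition of growth.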

Assays:
Test in all cases: NCI-60 cell line screen, 48 h
SNB-75 CNS = system: SNB-75 CNS
A498 renal = system: A498 renal
NCI-H522 lung = system: NCI-H522 lung
DLD-1 colon = system: DLD-1 colon
LOX IMVI melanoma = system: LOX IMVI melanoma
M19-MEL melanoma = system: M19-MEL melanoma
CCRF-CEM leukemia = system: CCRF-CEM leukemia
COLO 205 colon = system: COLO 205 colon
DMS 114 small cell lung = system: DMS 114 small cell lung
A549 NSCLC = system: A549 NSCLC
HOP-92 NSCLC = system: HOP-92 NSCLC
HOP-62 NSCLC = system: HOP-62 NSCLC
UACC-257 melanoma = system: UACC-257 melanoma
ACHN renal = system: ACHN renal
SK-MEL-28 melanoma = system: SK-MEL-28 melanoma
HT29 colon = system: HT29 colon
786-0 renal = system: 786-0 renal
SNB-78 CNS = system: SNB-78 CNS
NCI-H460 lung = system: NCI-H460 lung
RXF-631 renal = system: RXF-631 renal
SK-MEL-2 melanoma = system: SK-MEL-2 melanoma
SN12C renal = system: SN12C renal
SK-OV-3 ovarian = system: SK-OV-3 ovarian
HCT-15 colon = system: HCT-15 colon
RXF 393 renal = system: RXF 393 renal
SF-295 CNS = system: SF-295 CNS
K-562 leukemia = system: K-562 leukemia
MOLT-4 leukemia = system: MOLT-4 leukemia
UO-31 renal = system: UO-31 renal
SF-268 CNS = system: SF-268 CNS
M14 melanoma = system: M14 melanoma
SF-539 CNS = system: SF-539 CNS
SR leukemia = system: SR leukemia
SW-620 colon = system: SW-620 colon
XF 498 CNS = system: XF 498 CNS
NCI-H23 lung = system: NCI-H23 lung
TK-10 renal = system: TK-10 renal
SNB-19 CNS = system: SNB-19 CNS
EKVX NSCLC = system: EKVX NSCLC
NCI-H226 lung = system: NCI-H226 lung
KM20L2 colon = system: KM20L2 colon
MALME-3M melanoma = system: MALME-3M melanoma
HCT-116 colon = system: HCT-116 colon
KM12 colon = system: KM12 colon
CAKI-1 renal = system: CAKI-1 renal
IGROV1 ovarian = system: IGROV1 ovarian
RPMI-8226 leukemia = system: RPMI-8226 leukemia
OVCAR-8 ovarian = system: OVCAR-8 ovarian
HL-60(TB) leukemia = system: HL-60(TB) leukemia
SK-MEL-5 melanoma = system: SK-MEL-5 melanoma
OVCAR-4 ovarian = system: OVCAR-4 ovarian
LXFL 529 NSCLC = system: LXFL 529 NSCLC
U251 CNS = system: U251 CNS
HCC-2998 colon = system: HCC-2998 colon
DMS 273 small cell lung = system: DMS 273 small cell lung
OVCAR-3 ovarian = system: OVCAR-3 ovarian
OVCAR-5 ovarian = system: OVCAR-5 ovarian
UACC-62 melanoma = system: UACC-62 melanoma
HOP-18 NSCLC = system: HOP-18 NSCLC

CCN(CC)CCNc1ccc2ncn3c4cc(=O)ccc4c(O)c1c23
TGI (SNB-75 CNS): 21.6 µM | TGI (A498 renal): 14 µM | TGI (NCI-H522 lung): 5.36 µM | TGI (DLD-1 colon): 17 µM | TGI (LOX IMVI melanoma): 5.91 µM | TGI (M19-MEL melanoma): 16.5 µM | TGI (CCRF-CEM leukemia): 16.8 µM | TGI (COLO 205 colon): 16.6 µM | TGI (DMS 114 small cell lung): 18.1 µM | TGI (A549 NSCLC): 12.1 µM | TGI (HOP-92 NSCLC): 6.78 µM | TGI (HOP-62 NSCLC): 17.9 µM | TGI (UACC-257 melanoma): 17.8 µM | TGI (ACHN renal): 10.6 µM | TGI (SK-MEL-28 melanoma): 16.9 µM | TGI (HT29 colon): 11.5 µM | TGI (786-0 renal): 14.9 µM | TGI (SNB-78 CNS): 25.4 µM | TGI (NCI-H460 lung): 9.61 µM | TGI (RXF-631 renal): 12.5 µM | TGI (SK-MEL-2 melanoma): 21.7 µM | TGI (SN12C renal): 15.7 µM | TGI (SK-OV-3 ovarian): 41.9 µM | TGI (HCT-15 colon): 17 µM | TGI (RXF 393 renal): 3.68 µM | TGI (SF-295 CNS): 10.7 µM | TGI (K-562 leukemia): 30 µM | TGI (MOLT-4 leukemia): 6.15 µM | TGI (UO-31 renal): 22 µM | TGI (SF-268 CNS): 12.1 µM | TGI (M14 melanoma): 14.4 µM | TGI (SF-539 CNS): 15.1 µM | TGI (SR leukemia): 9.75 µM | TGI (SW-620 colon): 21 µM | TGI (XF 498 CNS): 12.8 µM | TGI (NCI-H23 lung): 14.6 µM | TGI (TK-10 renal): 47.1 µM | TGI (SNB-19 CNS): 32 µM | TGI (EKVX NSCLC): 23 µM | TGI (NCI-H226 lung): 11.4 µM | TGI (KM20L2 colon): 16.4 µM | TGI (MALME-3M melanoma): 14.9 µM | TGI (HCT-116 colon): 15.5 µM | TGI (KM12 colon): 22.1 µM | TGI (CAKI-1 renal): 13.4 µM | TGI (IGROV1 ovarian): 24.3 µM | TGI (RPMI-8226 leukemia): 9.97 µM | TGI (OVCAR-8 ovarian): 7.77 µM | TGI (HL-60(TB) leukemia): 11.9 µM | TGI (SK-MEL-5 melanoma): 12.1 µM | TGI (OVCAR-4 ovarian): 13.5 µM | TGI (LXFL 529 NSCLC): 20.5 µM | TGI (U251 CNS): 6.59 µM | TGI (HCC-2998 colon): 15.6 µM | TGI (DMS 273 small cell lung): 13.2 µM | TGI (OVCAR-3 ovarian): 6.36 µM | TGI (OVCAR-5 ovarian): 32.5 µM | TGI (UACC-62 melanoma): 14 µM

Cn1cc(NC(=O)c2cc(NC(=O)CCCCCCC(=O)Nc3cc(C(=O)Nc4cc(C(=O)NCCC(=N)N)n(C)c4)n(C)c3)cn2C)cc1C(=O)NCCC(=N)N
TGI (SNB-75 CNS): 38.6 µM | TGI (A498 renal): 5.28 µM | TGI (DLD-1 colon): > 100 µM | TGI (LOX IMVI melanoma): 18.5 µM | TGI (M19-MEL melanoma): 8.89 µM | TGI (CCRF-CEM leukemia): > 100 µM | TGI (COLO 205 colon): 18.9 µM | TGI (DMS 114 small cell lung): 5.44 µM | TGI (A549 NSCLC): 54.4 µM | TGI (HOP-92 NSCLC): > 100 µM | TGI (UACC-257 melanoma): 5.98 µM | TGI (ACHN renal): 54 µM | TGI (SK-MEL-28 melanoma): 16.9 µM | TGI (HT29 colon): > 100 µM | TGI (786-0 renal): 33.8 µM | TGI (SNB-78 CNS): 69.5 µM | TGI (NCI-H460 lung): 21.4 µM | TGI (SN12C renal): 33.1 µM | TGI (SK-OV-3 ovarian): > 100 µM | TGI (HCT-15 colon): > 100 µM | TGI (RXF 393 renal): 31.4 µM | TGI (SF-295 CNS): > 100 µM | TGI (K-562 leukemia): > 100 µM | TGI (UO-31 renal): > 100 µM | TGI (SF-268 CNS): > 100 µM | TGI (M14 melanoma): 33.9 µM | TGI (SF-539 CNS): 31 µM | TGI (SW-620 colon): > 100 µM | TGI (XF 498 CNS): 83 µM | TGI (NCI-H23 lung): 15.3 µM | TGI (TK-10 renal): 72.9 µM | TGI (SNB-19 CNS): > 100 µM | TGI (EKVX NSCLC): > 100 µM | TGI (KM20L2 colon): > 100 µM | TGI (MALME-3M melanoma): 12.1 µM | TGI (HCT-116 colon): 41.6 µM | TGI (KM12 colon): 13.3 µM | TGI (CAKI-1 renal): 89.7 µM | TGI (IGROV1 ovarian): 12.8 µM | TGI (OVCAR-8 ovarian): 43.2 µM | TGI (HL-60(TB) leukemia): 8.75 µM | TGI (SK-MEL-5 melanoma): 3.89 µM | TGI (OVCAR-4 ovarian): > 100 µM | TGI (HOP-18 NSCLC): > 100 µM | TGI (LXFL 529 NSCLC): 38.4 µM | TGI (U251 CNS): 68.8 µM | TGI (HCC-2998 colon): 23.2 µM | TGI (DMS 273 small cell lung): 12.7 µM | TGI (OVCAR-3 ovarian): 50.6 µM | TGI (OVCAR-5 ovarian): > 100 µM | TGI (UACC-62 melanoma): 20.8 µM
